Here are results for four molecules from patent US9271493B2, “Methods for microbial biofilm destruction” (priority 2012, dated 2016).

For experiment [1], the system named is UTI89. The experiment in a line: colony biofilm formation on YESCA agar. The class given is cell-based, uropathogenic E. coli. Conditions: for biofilm formation on agar (colony morphology): UTI89 on YESCA agar. The protocol: (§1) Growth conditions. UTI89, UTI89ΔcsgA, MC4100, and MC4100Δcsg were grown on YESCA (0.5 g/L yeast extract; 10 g/L Casamino acids) agar supplemented with additional compounds as indicated.
(§2) Biofilm assays. Colony biofilm formation was initiated by spotting 10 μl of overnight bacterial culture onto a YESCA agar plate (Kolodkin-Gal et al. (2010) Science 328:627-629). Colony morphology was observed after designated growth times at 26° C. Biofilm in YESCA broth attached to plastic (polyvinyl chloride, PVC) was determined using the Kolter crystal violet assay as described by O'Toole et al. (1998) Mol. Microbiol. 28:449-461. Briefly, bacterial cells were grown in 96-well PVC plates; unattached cells were washed away; and cells remaining associated with the PVC wells were stained with 0.1% crystal violet. The extent of biofilm formation was quantified by measuring the absorbance of crystal violet at OD595 after dissolving the PVC-associated biomass in 95% ethanol. The percent biofilm represents the increase in biofilm formation in the presence of various concentrations of DMSO and ethanol relative to biofilm formation when no compound was present. The mean of triplicate individual experiments was used and error bars represent the standard deviation. Pellicle formation was initiated by inoculating 4 μL of an overnight bacterial culture grown in YESCA broth in 4 mL YESCA in 12-well-plate wells and incubated at 26° C. Pellicle formation was inspected visually and assessed by perturbation with a pipet tip after 72 hours of growth.

Experiment [2] deals with UTI89. Nature of the experiment: pellicle formation (biofilm at the air-liquid interface). As to conditions: for pellicle formation / biofilm formation at the air-liquid interface: UTI89; for concentration preventing formation of a biofilm at the air-liquid interface: UTI89, complete inhibition. The class given is cell-based, uropathogenic E. coli. As for the experimental part:
as §2

Experiment [3] concerns UTI89. The experiment in a line: biofilm attached to PVC plastic, 96-well crystal violet assay. The class given is cell-based, uropathogenic E. coli. The protocol: as §2
The test system of experiment [4] is curli proteins, CsgA and CsgG. Nature of the experiment: Western blot analysis of cell-associated curli proteins. The class given is cell-based, E. coli. The protocol:
Western blot analysis. The cell-associated curli proteins, CsgA and CsgG, were examined by immunoblot assays as described (41). Briefly, whole-cell samples with equivalent cell number were prepared as cell pellets of 1 mL cell culture with an OD600 of 1.0. Each pellet was treated with 100 μL hexafluoroisopropanol (HFIP) to dissociate curli subunits (41). HFIP was removed by vacuum centrifugation, and samples were resuspended in SDS-PAGE loading buffer. Protein gel electrophoresis was carried out using 12% SDS-PAGE gels (Invitrogen) and blotted onto […] nitrocellulose transfer membranes (Whatman). The polyclonal rabbit antiserum to CsgA or CsgG was used as the primary antibody and horseradish peroxidase (HRP) conjugated goat anti-rabbit antibody (Pierce) was used as the secondary antibody (55).
(A western blot detects proteins with antibodies after separation by electrophoresis.)

The target of experiment [5] is T1, curli (Escherichia coli, UniProt P28307). As to conditions: McCrate, Zhou, and Cegelski 2013; cited from earlier work.
The next experiment deals with E. coli strain MC4100. Nature of the experiment: fibronectin-binding assay (adhesion to fibronectin-coated plates). The class given is cell-based. Conditions: MC4100 grown under curli-producing conditions on agar in the presence of compound; dose-dependent.
Source text: We employed a commonly used fibronectin-binding assay to determine whether curcumin blocks adhesion of E. coli strain MC4100 to fibronectin-coated plates. MC4100 is the E. coli strain in which curli biogenesis was first described. […] UTI89, on the other hand, is a prototypical biofilm-competent strain that forms biofilms on agar, on plastic, and at an air-liquid interface when expressing curli and cellulose. Since curli are sufficient to mediate binding to fibronectin, the use of MC4100 readily allows one to determine whether a compound or external stimulus can influence curli-dependent adhesion.
as §1

In another experiment the test system is E. coli. The experiment in a line: biofilm formation attached to Teflon (1 mL Teflon beakers, crystal violet). The class given is cell-based. Conditions: 48 hours at 26° C. in YESCA broth. The protocol: FIG. 4. Curcumin and dim ethyl curcumin reduce E. coli biofilm formation attached to Teflon using 1 mL Teflon beakers. After bacterial incubation for 48 hours at 26° C. in YESCA nutrient broth in the presence or absence of compounds, planktonic and loosely associated bacteria were washed from the beakers and adherent bacteria were stained with crystal violet, dissolved in ethanol and quantified by spectrophotometry.
Teflon is often used as a material in various industrial and biomedical applications, including the production of catheters. Teflon is often employed due to its general anti-adherent properties. Yet, even E. coli can adhere to Teflon and forms biofilms on Teflon surfaces. Thus, we also examined the ability of curcumin and DMC to prevent biofilm formation attached to Teflon using small 1-mL Teflon beakers.

Experiment [6] has as its target Alzheimer's β-amyloid fibrils (Homo sapiens, UniProt P05067). As to conditions: Ono et al. 2004; cited from earlier work.
For the next experiment, the target named is amyloid β (Homo sapiens, UniProt P05067). Conditions: oligomer form and fibril form; Yang et al. 2005; cited from earlier work.
In experiment [7] the target is T1, curli. Conditions: cited from earlier work.

Read-outs that look alike come from different tables or passages of the source.

T1 sequence (P28307 21-151): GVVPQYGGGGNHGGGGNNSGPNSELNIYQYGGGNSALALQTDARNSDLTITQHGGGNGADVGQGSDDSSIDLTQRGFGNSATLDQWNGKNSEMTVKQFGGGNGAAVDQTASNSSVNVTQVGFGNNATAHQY
Chain of amyloid β (P05067 672-713 limits assumed): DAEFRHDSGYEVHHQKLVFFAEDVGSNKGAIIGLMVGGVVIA
Chain of Alzheimer's β-amyloid fibrils (P05067 672-713 limits assumed): as above

`Nc1c(/N=N/c2ccc(-c3ccc(/N=N/c4cc(S(=O)(=O)O)c5ccccc5c4N)cc3)cc2)cc(S(=O)(=O)O)c2ccccc12` [Congo red]: the “biofilm formation on agar (colony morphology)” value in the experiment on UTI89 [1] is reported as “does not block biofilm formation”. Also, the “pellicle formation / biofilm formation at the air-liquid interface” value in the experiment on UTI89 [2] is “not”.
Take `COc1ccc(/C=C/C(=O)CC(=O)/C=C/c2ccc(OC)c(OC)c2)cc1OC` [DMC, dimethoxycurcumin]: the “concentration blocking biofilm formation attached to plastic (PVC)” value with UTI89 [3] was 10 µM. Besides, in the experiment on UTI89 [2], the “concentration preventing formation of a biofilm at the air-liquid interface” value amounted to 10 µM.
Take `COc1cc(/C=C/C(=O)CC(=O)/C=C/c2ccc(O)c(OC)c2)ccc1O` [curcumin]: the “concentration blocking biofilm formation attached to plastic (PVC)” value in the experiment with UTI89 [3] turned out to be 25 µM. In addition, in the experiment with UTI89 [3] (listed as curumin), the “concentration blocking biofilm formation attached to plastic (PVC)” value came out at 10 µM. Also, the “production of curli proteins” value in [4] (MC4100, Western blot) is given as “did not influence”. Further, the curli production entry in [4] (UTI89, Western blot) is on record as “not affected”. Besides, the binding to curli entry at curli [5] is listed as “binding to curli”. Also, the “biofilm inhibition on agar after 5 days” value in the experiment on UTI89 [1] (UTI89, 5 days of bacterial growth) is given as “diminished after 5 days”. Moreover, the “biofilm formation on agar (colony morphology)” value with UTI89 [1] was “lost the hallmark rough and wrinkled phenotype”. Further, the “adhesion to the protein fibronectin” value in the experiment with E. coli strain MC4100 is “reduced adhesion”. Also, in the experiment on E. coli, the “biofilm formation attached to Teflon” value is “effective at significantly preventing biofilm formation”. Also, in the experiment with UTI89 [2], the “pellicle formation / biofilm formation at the air-liquid interface” value is reported as “completely prevent pellicle formation” and the “concentration preventing formation of a biofilm at the air-liquid interface” value came to 25 µM. For the same molecule, in [6], the “amyloid fibril formation in vitro” value is recorded as “prevent amyloid fibril formation”. Further, at amyloid β, the “binding to amyloid β” value is “bind”.
As for LL-37, the curli formation result at curli [7] was “inhibits curli formation”.
